Test results from US11524951B2, “2-(2,4,5-substituted-anilino)pyrimidine compounds” (AstraZeneca AB, priority 2011, dated 2022).

What was measured:
Type in all cases: cell-based
[1] = molecular target: T1, L858R/T790M EGFR (Homo sapiens, UniProt P00533, L858R/T790M); assay: L858R/T790M EGFR (double mutant) cellular phosphorylation assay; conditions: NCI-H1975 human lung cells; endogenous p-EGFR in cell lysates by ELISA; 2 h with compound
T1 construct: Assays to measure cellular phosphorylation of endogenous p-EGFR in cell lysates; endogenous in cells; host or cells: NCI-H1975 (human lung cell line)
T1 sequence (P00533 25-1210 T790M/L858R): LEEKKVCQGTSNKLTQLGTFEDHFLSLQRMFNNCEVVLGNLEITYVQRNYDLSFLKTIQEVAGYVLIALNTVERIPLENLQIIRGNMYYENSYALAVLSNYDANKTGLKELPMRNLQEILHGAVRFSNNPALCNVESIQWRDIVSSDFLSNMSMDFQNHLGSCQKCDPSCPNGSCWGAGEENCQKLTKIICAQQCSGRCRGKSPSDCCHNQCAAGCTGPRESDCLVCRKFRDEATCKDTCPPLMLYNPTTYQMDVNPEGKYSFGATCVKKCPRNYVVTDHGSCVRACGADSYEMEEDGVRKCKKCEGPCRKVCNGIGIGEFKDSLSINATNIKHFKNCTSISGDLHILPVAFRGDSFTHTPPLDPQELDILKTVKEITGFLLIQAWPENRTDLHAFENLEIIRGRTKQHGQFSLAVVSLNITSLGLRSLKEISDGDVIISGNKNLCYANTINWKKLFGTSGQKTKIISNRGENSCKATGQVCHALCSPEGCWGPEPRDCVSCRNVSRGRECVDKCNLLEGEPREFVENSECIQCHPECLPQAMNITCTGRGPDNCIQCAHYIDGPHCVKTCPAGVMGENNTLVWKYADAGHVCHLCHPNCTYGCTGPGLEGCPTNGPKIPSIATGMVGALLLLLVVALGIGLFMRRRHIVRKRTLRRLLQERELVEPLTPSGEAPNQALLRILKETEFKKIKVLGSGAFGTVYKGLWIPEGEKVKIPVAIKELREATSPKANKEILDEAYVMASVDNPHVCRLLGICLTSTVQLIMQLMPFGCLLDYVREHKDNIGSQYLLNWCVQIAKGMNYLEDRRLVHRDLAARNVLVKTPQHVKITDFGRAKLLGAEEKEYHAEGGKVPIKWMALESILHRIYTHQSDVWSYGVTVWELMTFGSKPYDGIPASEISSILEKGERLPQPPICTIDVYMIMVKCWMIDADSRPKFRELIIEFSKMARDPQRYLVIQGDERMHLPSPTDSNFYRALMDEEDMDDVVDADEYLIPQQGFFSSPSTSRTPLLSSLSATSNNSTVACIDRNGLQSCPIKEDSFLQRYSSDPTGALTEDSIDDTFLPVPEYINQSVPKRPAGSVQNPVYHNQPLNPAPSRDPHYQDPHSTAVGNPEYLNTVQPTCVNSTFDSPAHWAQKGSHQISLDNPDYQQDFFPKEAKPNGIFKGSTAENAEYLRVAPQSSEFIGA
Method: Assay 2: L858R/T790M EGFR (Double Mutant) Cellular Phosphorylation Assay
The human lung cell lines NCI-H1975 were obtained from the American type Culture Collection. […] Cells were grown in a humidified incubator at 37° C. with 5% CO2.
Assays to measure cellular phosphorylation of endogenous p-EGFR in cell lysates were carried out according to the protocol described in the R&D Systems DuoSet IC Human Phospho-EGF R ELISA (R&D Systems catalogue number #DYC1095).
40 μL of cells were seeded (10000 cells/well) in growth medium in Corning black, clear-bottomed 384-well plates and incubated at 37° C. with 5% CO2 overnight. […] Plates were incubated for a further 2 h and following aspiration of medium, 40 μL 1× lysis buffer was added to each well. Greiner black high bind 384-well plates were coated with capture antibody and then blocked with 3% BSA. Following removal of block, 15 μL of lysate were transferred to the Greiner black high bind 384-well plates and incubated for 2 hours. Following aspiration and washing of the plates with PBS, 20 μL of detection antibody were added and incubated for 2 hours. […] 20 μL QuantaBlu stop solution were added to plates and fluorescence read on an Envision plate reader using
The data obtained with each compound was exported into a suitable software package (such as Origin) to perform curve fitting analysis.

[2] = molecular target: T2, Wild-type EGFR (Homo sapiens, UniProt P00533); assay: Wild-type EGFR cellular phosphorylation assay; conditions: LoVo human colon cells; endogenous p-EGFR in cell lysates by ELISA; 2 h with compound, then stimulated 100 ng/ml for 10 minutes; read-out: Assay 3 (IC50)
T2 construct: Assays to measure cellular phosphorylation of endogenous p-EGFR in cell lysates; endogenous in cells; host or cells: LoVo (human colon cell line)
T2 sequence (P00533 25-1210): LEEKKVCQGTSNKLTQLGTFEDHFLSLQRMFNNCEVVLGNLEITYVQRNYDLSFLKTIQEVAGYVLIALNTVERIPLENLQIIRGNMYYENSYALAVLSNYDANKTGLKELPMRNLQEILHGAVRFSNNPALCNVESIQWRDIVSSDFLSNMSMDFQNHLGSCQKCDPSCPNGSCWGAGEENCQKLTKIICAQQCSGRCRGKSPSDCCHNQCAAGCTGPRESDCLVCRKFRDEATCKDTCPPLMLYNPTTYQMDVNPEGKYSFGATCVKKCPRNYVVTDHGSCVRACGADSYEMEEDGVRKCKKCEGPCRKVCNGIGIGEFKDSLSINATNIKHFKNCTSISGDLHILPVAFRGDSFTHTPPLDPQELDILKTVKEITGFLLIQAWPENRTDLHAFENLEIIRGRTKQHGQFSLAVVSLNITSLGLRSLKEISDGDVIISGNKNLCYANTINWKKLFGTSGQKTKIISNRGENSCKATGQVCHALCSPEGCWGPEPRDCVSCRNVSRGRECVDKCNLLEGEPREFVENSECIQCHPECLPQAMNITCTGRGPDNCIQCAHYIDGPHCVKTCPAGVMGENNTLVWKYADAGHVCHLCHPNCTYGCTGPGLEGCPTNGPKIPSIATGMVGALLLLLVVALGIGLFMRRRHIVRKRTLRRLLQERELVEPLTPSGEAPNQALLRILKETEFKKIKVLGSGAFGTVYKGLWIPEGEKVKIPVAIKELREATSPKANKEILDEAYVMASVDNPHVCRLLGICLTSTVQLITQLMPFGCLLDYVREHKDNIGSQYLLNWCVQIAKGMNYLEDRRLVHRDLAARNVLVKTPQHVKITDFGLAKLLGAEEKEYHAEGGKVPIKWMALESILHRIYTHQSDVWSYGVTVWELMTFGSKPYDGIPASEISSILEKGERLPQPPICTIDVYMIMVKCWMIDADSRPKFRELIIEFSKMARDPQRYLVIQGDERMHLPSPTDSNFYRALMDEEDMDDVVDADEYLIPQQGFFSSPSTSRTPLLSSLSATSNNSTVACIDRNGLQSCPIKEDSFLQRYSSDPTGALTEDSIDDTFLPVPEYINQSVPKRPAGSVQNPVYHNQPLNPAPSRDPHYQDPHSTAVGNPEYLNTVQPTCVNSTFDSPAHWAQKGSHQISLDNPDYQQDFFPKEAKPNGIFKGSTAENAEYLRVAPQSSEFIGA
Method: Assay 3: Wild-Type EGFR Cellular Phosphorylation Assay
The human colon cell line LoVo were obtained from the American type Culture Collection. […] Cells were grown in a humidified incubator at 37° C. with 5% CO2. Assays to measure cellular phosphorylation of endogenous p-EGFR in cell lysates were carried out according to the protocol described in the R&D Systems DuoSet IC Human Phospho-EGF R ELISA (R&D Systems catalogue number #DYC1095). 40 μL of cells were seeded (15000 cells/well) in growth medium in Corning black, clear-bottomed 384-well plates and incubated at 37° C. with 5% CO2 overnight. […] Plates were incubated for a further 2 h then stimulated with 100 ng/ml for 10 minutes and following aspiration of medium, 40 μL 1× lysis buffer was added to each well. Greiner black high bind 384-well plates were coated with capture antibody and then blocked with 3% BSA. […] Following aspiration and washing of the plates with PBS, 20 μL of detection antibody were added and incubated for 2 hours. […] The data obtained with each compound was exported into a suitable software package (such as Origin) to perform curve fitting analysis.

[3] = molecular target: T3, Exon19 deletion EGFR (Homo sapiens, UniProt P00533, DEL746-750); assay: Exon19 deletion EGFR (activating single mutant) cellular phosphorylation assay; conditions: PC9 human lung cells (Exon 19 deletion EGFR); endogenous p-EGFR in cell lysates by ELISA; 2 h with compound; read-out: Assay 1 (IC50)
T3 construct: Assays to measure cellular phosphorylation of endogenous p-EGFR in cell lysates; endogenous in cells; host or cells: PC9 (human lung cell line)
T3 sequence (P00533 with tags, fused parts or gaps DEL746-750): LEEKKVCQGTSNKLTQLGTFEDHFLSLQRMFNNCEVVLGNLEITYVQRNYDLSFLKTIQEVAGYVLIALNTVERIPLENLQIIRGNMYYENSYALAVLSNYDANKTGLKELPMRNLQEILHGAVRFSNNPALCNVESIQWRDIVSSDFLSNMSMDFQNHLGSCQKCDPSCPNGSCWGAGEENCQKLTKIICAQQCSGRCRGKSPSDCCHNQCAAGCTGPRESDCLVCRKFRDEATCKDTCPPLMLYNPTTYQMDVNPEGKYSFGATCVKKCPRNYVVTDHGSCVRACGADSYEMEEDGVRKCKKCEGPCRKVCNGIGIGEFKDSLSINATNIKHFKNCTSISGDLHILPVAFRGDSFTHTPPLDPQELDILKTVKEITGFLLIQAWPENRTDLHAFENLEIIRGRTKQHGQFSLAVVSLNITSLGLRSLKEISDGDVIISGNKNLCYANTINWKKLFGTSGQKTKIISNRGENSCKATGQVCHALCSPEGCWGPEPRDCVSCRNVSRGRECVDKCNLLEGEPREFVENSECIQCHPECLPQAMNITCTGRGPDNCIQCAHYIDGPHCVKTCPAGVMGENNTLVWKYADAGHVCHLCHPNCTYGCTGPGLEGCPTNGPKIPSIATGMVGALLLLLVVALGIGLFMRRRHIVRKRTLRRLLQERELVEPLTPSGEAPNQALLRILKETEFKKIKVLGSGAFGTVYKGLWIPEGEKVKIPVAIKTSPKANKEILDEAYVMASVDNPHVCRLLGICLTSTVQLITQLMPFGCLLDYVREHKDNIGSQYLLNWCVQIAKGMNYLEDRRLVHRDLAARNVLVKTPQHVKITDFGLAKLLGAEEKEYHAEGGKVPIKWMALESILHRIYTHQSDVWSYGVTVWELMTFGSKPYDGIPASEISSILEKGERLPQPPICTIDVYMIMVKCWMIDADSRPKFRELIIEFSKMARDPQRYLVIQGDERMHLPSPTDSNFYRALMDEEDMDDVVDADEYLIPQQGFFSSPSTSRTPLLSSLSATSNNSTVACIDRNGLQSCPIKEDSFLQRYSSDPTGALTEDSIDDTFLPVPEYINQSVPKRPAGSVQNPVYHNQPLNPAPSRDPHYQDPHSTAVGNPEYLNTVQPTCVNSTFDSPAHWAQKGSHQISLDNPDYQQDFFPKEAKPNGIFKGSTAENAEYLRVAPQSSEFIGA
Method: Assay 1: Exon19 Deletion EGFR (Activating Single Mutant) Cellular Phosphorylation Assay
The human lung cell line PC9 (Exon 19 deletion EGFR) were obtained from the American type Culture Collection. […] Cells were grown in a humidified incubator at 37° C. with 5% CO2. Assays to measure cellular phosphorylation of endogenous p-EGFR in cell lysates were carried out according to the protocol described in the R&D Systems DuoSet IC Human Phospho-EGF R ELISA (R&D Systems catalogue number #DYC1095). 40 μL of cells were seeded (10000 cells/well) in growth medium in Corning black, clear-bottomed 384-well plates and incubated at 37° C. with 5% CO2 overnight. […] Plates were incubated for a further 2 h, then following aspiration of medium, 40 μL 1× lysis buffer was added to each well. Greiner black high bind 384-well plates were coated with capture antibody and then blocked with 3% BSA. Following removal of block, […], of lysate were transferred to the Greiner black high bind 384-well plates and incubated for 2 hours. Following aspiration and washing of the plates with PBS, 20 μL of detection antibody were added and incubated for 2 hours. […] The data obtained with each compound was exported into a suitable software package (such as Origin) to perform curve fitting analysis.

| Compound | IC50 [1] [nM] | IC50 [2] [nM] | IC50 [3] [nM] |
| --- | --- | --- | --- |
| C=CC(=O)Nc1cc(Nc2nccc(-c3cnn4c3CCCC4)n2)c(OC)cc1N(C)CCN(C)C [Example 42, N-(2-{2-Dimethylaminoethyl-methylamino}-4-methoxy-5-{[4-(4,5,6,7-tetrahydropyrazolo[1,5-a]pyridin-3-yl)pyrimidin-2-yl]amino}phenyl)prop-2-enamide] | 5.16 | 454 | 5.19 |
| C=CC(=O)Nc1cc(Nc2nccc(-c3cnn4c3CCCC4)n2)c(OC)cc1N1CC[C@@H]2CN(C)C[C@@H]21 [Example 43, N-(2-{(3aR,6aR)-5-Methyl-2,3,3a,4,6,6a-hexahydropyrrolo[3,4-b]pyrrol-1-yl}-4-methoxy-5-{[4-(4,5,6,7-tetrahydropyrazolo[1,5-a]pyridin-3-yl)pyrimidin-2-yl]amino}phenyl)prop-2-enamide] | 10.6 | 1340 | 18.2 |
| C=CC(=O)Nc1cc(Nc2nccc(-c3cnn4c3CCCC4)n2)c(OC)cc1N1CC[C@@H](N(C)C)C1 [Example 44, N-(2-{(3R)-3-Dimethylaminopyrrolidin-1-yl}-4-methoxy-5-{[4-(4,5,6,7-tetrahydropyrazolo[1,5-a]pyridin-3-yl)pyrimidin-2-yl]amino}phenyl)prop-2-enamide] | 25.6 | 3640 | 33.3 |
| C=CC(=O)Nc1cc(Nc2nccc(-c3cnn4c3CCCC4)n2)c(OC)cc1C1=CCN(C)CC1 [Example 45, N-(4-Methoxy-2-{1-methyl-3,6-dihydro-2H-pyridin-4-yl}-5-{[4-(4,5,6,7-tetrahydropyrazolo[1,5-a]pyridin-3-yl)pyrimidin-2-yl]amino}phenyl)prop-2-enamide] | 41 | 7400 | 110 |
| C=CC(=O)Nc1cc(Nc2nccc(-c3cnn4c3CCCC4)n2)c(OC)cc1N1CC(N(C)C)C1 [Example 46, N-(2-{3-Dimethylaminoazetidin-1-yl}-4-methoxy-5-{[4-(4,5,6,7-tetrahydropyrazolo[1,5-a]pyridin-3-yl)pyrimidin-2-yl]amino}phenyl)prop-2-enamide] | 92.9 | 7090 | 129 |
| C=CC(=O)Nc1cc(Nc2nccc(-c3cnn4c3CCCC4)n2)c(OC)cc1N1CC2(CCCN2C)C1 [Example 47, N-(4-Methoxy-2-{8-methyl-2,8-diazaspiro[3.4]octan-2-yl}-5-{[4-(4,5,6,7-tetrahydropyrazolo[1,5-a]pyridin-3-yl)pyrimidin-2-yl]amino}phenyl)prop-2-enamide] | 119 | 15400 | 194 |
| C=CC(=O)Nc1cc(Nc2nccc(-c3cn(C)c4ccccc34)n2)c(OC)cc1C1=CCN(C)CC1 [Example 48, N-(4-Methoxy-2-{1-methyl-3,6-dihydro-2H-pyridin-4-yl}-5-{[4-(1-methylindol-3-yl)pyrimidin-2-yl]amino}phenyl)prop-2-enamide] | 31 | 1580 | 39.9 |
| C=CC(=O)Nc1cc(Nc2nccc(-c3cn(C)c4ccccc34)n2)c(OC)cc1N1CC2(CCCN2C)C1 [Example 49, N-(4-Methoxy-2-{8-methyl-2,8-diazaspiro[3.4]octan-2-yl}-5-{[4-(1-methylindol-3-yl)pyrimidin-2-yl]amino}phenyl)prop-2-enamide] | 51 | 3090 | 74.2 |
| C=CC(=O)Nc1cc(Nc2nccc(-c3cnn4ccccc34)n2)c(OC)cc1C1=CCN(C)CC1 [Example 51, N-{4-Methoxy-2-[1-methyl-3,6-dihydro-2H-pyridin-4-yl]-5-[(4-pyrazolo[1,5-a]pyridin-3-ylpyrimidin-2-yl)amino]phenyl}prop-2-enamide] | 7.71 | 462 | 13 |
| C=CC(=O)Nc1cc(Nc2nccc(-c3cnn4ccccc34)n2)c(OC)cc1N1CC[C@@H](N(C)C)C1 [Example 52, N-{2-[(3R)-3-Dimethylaminopyrrolidin-1-yl]-4-methoxy-5-[(4-pyrazolo[1,5-a]pyridin-3-ylpyrimidin-2-yl)amino]phenyl}prop-2-enamide] | 15 | 1400 | 26 |
